Measurements from US10357576B2, “18F-labelled folate/antifolate analogues” (MERCK & CIE, priority 2012, dated 2019).

Experiment: Log D7.4 determination, shake-flask method (n-octanol/PBS)
Type: physicochemical
Conditions: n-octanol/PBS pH 7.4, room temperature, n=10
Procedure: Determination of the Log D: Determination of the log D value was performed, using the shake-flask-method, where the partition coefficient of the radiotracer between n-octanol and phosphate buffered saline (PBS) was determined (Wilson et al. 2001 Applied Radiation and Isotopes). n-Octanol (0.5 ml) and PBS (0.5 ml) were mixed in an Eppendorf tube containing the radioactive sample (5-10 μl). Tubes were shaken for 15 min at room temperature in an over-head shaker and afterwards centrifuged (3 min, 5000 rpm). From each Eppendorf tube, 50 μl of each phase were transferred into a vial for counting in a γ-counter. The log D value was calculated according to the following equation: log D7.4=log [activity(octanol phase)/activity PBS phase)].
For log D7.4 determination a phosphate buffer was prepared, making a solution of KH2PO4 (1.743 g, 12.81 mmol) and Na2HPO4.2H2O (9.596 g, 53.91 mmol) in water (1000 ml). A saturated solution of phosphate buffer in n-octanol and a saturated solution of n-octanol in phosphate buffer were prepared. The PBS solution (500 μl) and n-octanol solution (500 μl) were pipetted into an Eppendorf tube and the radiotracer (5-10 μl) was added. The Eppendorf tube was shaken for 15 min at room temperature in an over-head shaker. […] By calculating the logarithm of the ratio of the counts in the n-octanol and the PBS phase, the log D7.4 value was determined. […]

- log D7.4 (partition coefficient in n-octanol/PBS): −4.2±0.1
- logD (read-out: log D7.4 (partition coefficient in n-octanol/PBS)): -4.2 ± 0.1
SMILES: Nc1nc2ncc(CNc3ccc(C(=O)N[C@@H](CCC(=O)O)C(=O)O)c([18F])n3)nc2c(=O)[nH]1 [3′-aza-2′-[^18F]fluorofolic acid]
